This note sets out measurements from US5824683A, “2'-[[4'-h alo-[1,1'-biphenyl]-4-yl]methyl]-5'-methyl-spiro[cyclopentane-1,7' (8'H)-[3H] imidazo[2,1-b]purin]-4' (5'H)-ones” (Schering Corporation, priority 1996, dated 1998).

Structures are written as SMILES.

The target of series [1] is T1, PDE Type V (cGMP phosphodiesterase, cGMP-PDE) (Bos taurus, UniProt Q28156).
T1 construct: homogeneous enzyme obtained from bovine lung and purified by ion-exchange chromatography, gel filtration, and sucrose gradient centrifugation; from tissue; host or cells: bovine lung
The series can be described thus: Phosphodiesterase inhibition in vitro, Type V (cGMP phosphodiesterase, cGMP-PDE). The class given is biochemical. The conditions noted are these: cGMP-PDE from bovine lung; 1 μM 3H-cGMP substrate; pH 7.5; 25 minutes, room temperature.

Series [2] has as its target T2, PDE Type I (calcium-calmodulin dependent phosphodiesterase, CaM-PDE) (Bos taurus, UniProt P14100).
T2 construct: from tissue; host or cells: bovine aorta
As to the kind of experiment: Phosphodiesterase inhibition in vitro, Type I (calcium-calmodulin dependent phosphodiesterase, CaM-PDE). The conditions noted are these: CaM-PDE from bovine aorta; 1 μM 3H-cGMP substrate; pH 7.5; 25 minutes, room temperature. The class given is biochemical.

Series [3] in a line: Plasma levels in SHR after oral dosing. The class given is in vivo. The following applies: rat, 10 mg/kg, 10 mpk orally, sampled 0.5, 1, 2, 3 and 4 hours, read-out: Plasma Level AUC. Here is the method:
SHRs dosed orally with test compound at 10 mpk and plasma levels were subsequently measured at intervals of 0.5, 1, 2, 3 and 4 hours. Plasma levels (μg/ml) were plotted versus hours post dosing and the area under the curve (AUC, μghr/ml) was calculated.

For series [4], the system named is spontaneously hypertensive rats (SHR). The series can be described thus: Antihypertensive activity in conscious spontaneously hypertensive rats (SHR). It counts as in vivo, rat. The following applies: 10 mpk po, fasted overnight, mean blood pressure. Here is the method: The ability of the compounds of the present invention to lower blood pressure can be assessed in vivo in conscious spontaneously hypertensive rats (SHR). SHR males are purchased from Taconic Farms, Germantown New York and are approximately 16-18 weeks old when anesthetized with ether. The caudal (ventral tail) artery is cannulated with polyethylene tubing (PESO) and blood pressure and heart rate are recorded as described by Baum, T. et. al, J. Cardiovasc. Pharmacol. Vol 5, pp. 655-667, (1983). Rats are placed into plastic cylindrical cages where they rapidly recover consciousness. Blood pressure and heart rate are allowed to stabilize for approximately 90 minutes prior to compound administration. Compounds are administered orally as solutions or suspensions in 0.4% aqueous methylcellulose vehicle via a feeding needle. The compound or 0.4% aqueous methylcellulose vehicle are given in a volume of 4 ml/kg to SHRs that had been fasted overnight. Activity is expressed as the fall in mean blood pressure (MBP) in millimeters of mercury (mm Hg). Compound-induced changes are compared with the changes in an appropriate placebo group.

Take `CN1C(=O)c2[nH]c(Cc3ccc(-c4ccc(Br)cc4)cc3)nc2N2CC3(CCCC3)N=C12` [Example 2]: the IC50 in series [1] was 0.21 µM; in series [2], 0.012 µM. Also, the AUC at 4 h in series [3] is 5.89 µg·h/mL. The “SHR Antihypertensive: Fall in MBP” value in series [4] is given as -11 mmHg.

In the case of `COc1ccc(-c2ccc(Cc3nc4c([nH]3)C(=O)N(C)C3=NC5(CCCC5)CN34)cc2)cc1` [Ref. Cpd., 2'-[[(4'-methoxy-1,1'-biphenyl) -4-yl]methyl]-5'-methyl-spiro[cyclopentane-1,7'(8'H)-[3H]imidazo-[2,1-b]purin]-4'(5'H)-one, reference compound], the IC50 stood at 0.5 µM in series [1] and 0.005 µM in series [2]. Moreover, the AUC at 4 h in series [3] was 3.34 µg·h/mL. Also, the “SHR Antihypertensive: Fall in MBP” value in series [4] is -35 mmHg.

In the case of `CN1C(=O)c2[nH]c(Cc3ccc(-c4ccc(Cl)cc4)cc3)nc2N2CC3(CCCC3)N=C12` [Example 1], the IC50 in series [1] was determined as 0.17 µM; in series [2] it was 0.011 µM. Further, in series [3], the AUC at 4 h stood at 4.8 µg·h/mL. In series [4], the “SHR Antihypertensive: Fall in MBP” value is reported as -24 mmHg.

With `CN1C(=O)c2[nH]c(Cc3ccc(-c4ccc(F)cc4)cc3)nc2N2CC3(CCCC3)N=C12` [Example 3], the IC50 in series [1] was found to be 0.52 µM; in series [2], 0.009 µM. Further, the AUC at 4 h in series [3] was 7.73 µg·h/mL. Moreover, the “SHR Antihypertensive: Fall in MBP” value in series [4] is -35 mmHg.
